Measurements published in patent publication EP2818471A1, “Nitrogen bicyclic compounds as inhibitors for Scyl1 and Grk5” (Max-Planck-Gesellschaft zur Förderung der Wissenschaften …, priority 2013, dated 2014).
Read-outs that look alike come from different tables or passages of the source. Blank lines part the entries; values can stand above or below the compound they belong to.

Columns and labels:
[1] = system: 3T3-L pre-adipocytes differentiated to matured adipocytes; assay: Insulin dependence of 2-NBDG uptake in matured adipocytes; format: cell-based; details: compound added beside 10 µg/ml insulin, 1 h, 100 µM 2-NBDG; Figure 12
Protocol: To investigate if the 2-NBDG uptake of the inventive compound inhibitors of Scyl1 and GRK5 are insulin dependent, 3T3-L pre-adipocytes were differentiated to matured adipocytes. Afterwards, cells were starved for 4 h before they were washed and glucose free media supplied with 100 µM 2-NBDG, in the presence and absence of 10 µg/ml insulin and either Cpd 10 (Scyl1) of Cpd 1 (Grk5) was added for 1 h at 37 °C. Furthermore, as internal controls, samples of glucose free media or glucose free media with compound were measured (data not shown). Fluorescence was analyzed by flow cytometer (FACS Calibur, BD Bioscience, respectively a BD Accuri® C6 Flow Cytometer). For evaluation, cells were gated using the side- and forward scatter SSC/FSC and quantified by excited at 488 and detected at 533 nm (FL1).

C2C12 cells = assay: 2-NBDG glucose uptake by flow cytometry; details: for fold induction at 5 µM: Mus musculus, C2C12, 1 h, read-out: Ratio of 2-NBDG uptake
Protocol: (§1) Furthermore, as internal controls, samples of glucose free media, respectively glucose free media with test compound, were tested. Subsequently, cells were washed, trypsinized and harvested in ice-cold PBS before centrifuged at 1.6 x10^3 rpm at 4°C. Cells were analyzed by flow cytometry (FACS Calibur, BD Bioscience, respectively a BD Accuri® C6 Flow Cytometer).
(§2) To investigate the impact of the Grk5 inhibitors on Glucose uptake, cells were cultured 1 h in glucose free media supplied with 100 µM 2-NBDG at 37 °C and 5 % (v/v) CO2. Furthermore, as internal controls, samples of glucose free media, respectively glucose free media with test compounds, were measured. Fluorescence was analyzed by flow cytometer (FACS Calibur, BD Bioscience, respectively a BD Accuri® C6 Flow Cytometer).

beta-TC6 cells [2] = assay: Insulin HTRF assay, relative activity Ar normalized to sunitinib; format: cell-based; details: Mus musculus, normalized to positive control sunitinib (5 µM = 100%), Table 10
Procedure, shortened: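 beta-TC6 cells (15k/well) were seeded for 24 or 48 h, washed and exposed to test compound or sunitinib (5 µM f.c.) in induction buffer with 0.5% DMSO for 2, 3 or 4 h at 37°C. Secreted insulin in the supernatant was measured by two-antibody HTRF after 120 min at RT. Ar = (V − 0% control)/(100% control − 0% control) × 100.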

beta-TC6 cell system = assay: Comparison of insulin release with commercially available inhibitors, mouse/rat insulin ELISA; format: cell-based; details: Mus musculus, Beta-TC6; 5µM, 2 h; DMSO = 0; Table 9
Protocol: Based on literature references, several commercially available inhibitors were compared with compounds according to the invention. […] Cells were cultured for 24 h before treated with the inventive compounds and control inhibitors for 2 h at 37 °C and 5 % (v/v) CO2. Insulin in the supernatant was detected by mouse/rat insulin ELISA.

beta-TC6 cells [3] = assay: Insulin release in high glucose medium, rat/mouse insulin ELISA; format: cell-based; details: for activation at 5 µM / fold induction at 5 µM: Mus musculus, Beta-TC6, 2 h; for fold induction at 5 µM: high glucose (4.5 g/L)
Protocol: Cells were cultured overnight, washed with PBS and then treated with 5 µM of test compounds as well as non-inhibitor controls for 2 h in a high glucose (4.5 g/L) DMEM at 37°C and 5 % (v/v) CO2. Release of insulin was detected using a rat/mouse insulin ELISA.
After incubation, the supernatant of the beta-TC6 insulinoma cells was diluted 1:20, whereas the supernatants of the RIN-T2B-5AH were diluted 1:10. The insulin release was measured with rat/mouse insulin ELISA (Merck Millipore Darmstadt, Cat. # EZRMI-13K) by following the manufacture's protocol. The enzyme activity of the horseradish peroxidase of the immobilized biotinylated antibodies was monitored spectrophotometrically by the increased absorbency at 490 nm, and corrected by the absorbency at 610 nm.
Afterwards, the supernatant was analyzed for insulin using the rat/mouse insulin ELISA (Merck Millipore Darmstadt, Cat. # EZRMI-13K) by following the manufacture's protocol..
Cells were treated for 2 h in a high glucose (4.5 g/L) DMEM media at 37°C and 5 % (v/v) CO2. Insulin release was analyzed using the rat/mouse insulin ELISA.

GRK5 = target: T1, GRK5 (Homo sapiens, UniProt P34947); assay: GRK5 radiometric filtration binding assay (Millipore KinaseProfiler); format: biochemical; details: Table 6
T1 construct: purchased Millipore (KinaseProfiler service)
Protocol: As alternative, IC50 values are determined by a radiometric based filtration binding assay, namely Millipore KinaseProfiler™. GRK5 is incubated with 8 mM MOPS pH7.0, 0.2 mM EDTA, 2 mg/mL casein, 10 mM MgAcetate and […] (specific activity approx. 500 cpm/pmol, concentration as required). The reaction is initiated by the addition of the MgATP mix. After incubation for 40 minutes at room temperature, the reaction is stopped by the addition of 3 % phosphoric acid solution. 10 µL of the reaction is then spotted onto a P30 filtermat and washed three times for 5 minutes in 75 mM phosphoric acid and once in methanol prior to drying and scintillation counting.

beta-TC6 cells [4] = assay: 2-NBDG glucose uptake by flow cytometry; details: Mus musculus, Beta-TC6, 1 h, read-out: Ratio of 2-NBDG uptake
Protocol: as §1, §2

beta-TC6 cells [5] = assay: Insulin release in high glucose medium, rat/mouse insulin ELISA; format: cell-based; details: 2 h, high glucose (4.5 g/L)

T1 sequence (P34947 whole entry): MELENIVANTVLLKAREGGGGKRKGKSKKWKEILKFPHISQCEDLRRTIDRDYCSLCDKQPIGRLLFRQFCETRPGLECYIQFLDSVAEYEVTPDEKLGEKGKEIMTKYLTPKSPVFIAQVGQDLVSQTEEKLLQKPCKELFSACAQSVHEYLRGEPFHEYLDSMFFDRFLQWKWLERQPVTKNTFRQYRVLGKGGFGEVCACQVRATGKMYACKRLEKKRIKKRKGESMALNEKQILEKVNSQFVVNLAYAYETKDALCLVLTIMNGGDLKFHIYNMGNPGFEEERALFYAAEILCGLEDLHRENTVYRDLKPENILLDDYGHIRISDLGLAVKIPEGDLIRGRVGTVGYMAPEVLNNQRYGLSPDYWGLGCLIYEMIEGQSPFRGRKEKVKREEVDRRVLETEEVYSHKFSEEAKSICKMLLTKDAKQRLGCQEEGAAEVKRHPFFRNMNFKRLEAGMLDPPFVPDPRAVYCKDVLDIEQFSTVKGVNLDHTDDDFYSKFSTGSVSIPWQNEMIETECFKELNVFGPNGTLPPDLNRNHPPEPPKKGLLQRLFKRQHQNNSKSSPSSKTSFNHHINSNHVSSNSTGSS

- IC50 (GRK5): 5 to 20 µM
Compound: NC(=O)c1ccc(-c2cnc3ccc(Cc4ccc(F)cc4)nn23)cc1 [compound 1, 4-[6-[(4-fluorophenyl)methyl]imidazo[1,2-b]pyridazin-3-yl]benzamide]
- additional (insulin independent) increase [1]: 48.9 ± 7.2%
- uptake of 2-NBDG compared with negative control background (C2C12 cells; C2C12, 1 h compound treatment, Figure 10): significantly increased uptake of 2-NBDG
- fold induction at 5 µM (C2C12 cells): 2.45
- Emax (beta-TC6 cells [2]): 20 to 50%
- activation at 5 µM (beta-TC6 cell system): 70.7%
- activation at 5 µM (beta-TC6 cells [3]; high glucose (4.5 g/L) DMEM, Example 9, Figure 6, ± SEM, read-out: increase of insulin release): 42.8 ± 6.8%
- fold induction at 5 µM (beta-TC6 cells [3]; 0 µM = 1, Table 7): 1.81
- fold induction at 5 µM (beta-TC6 cells [4]): 1.57
- fold induction at 2 µM (beta-TC6 cells [5]; 0 µM = 1, Table 7): 1.24
- fold induction at 10 µM (beta-TC6 cells [5]; 0 µM = 1, Table 7): 2.03

Compound: COc1cc(-c2ccc3ncc(-c4cccnc4)n3n2)cc(OC)c1OC [compound 10, 3-(3-pyridyl)-6-(3,4,5-trimethoxyphenyl)imidazo[1,2-b]pyridazine]
- additional (insulin independent) increase [1]: 18.2 ± 3.5%
- fold induction at 5 µM (C2C12 cells): 1.55
- Emax (beta-TC6 cells [2]): 20 to 50%
- activation at 5 µM (beta-TC6 cell system): 89.8%
- increase of insulin release (beta-TC6 cells [3]; 5 µM, 2 h, high glucose (4.5 g/L) DMEM, Example 4, Figure 2): 60.2 ± 8.9%
- activation at 5 µM (beta-TC6 cells [3]; high glucose (4.5 g/L) DMEM, Example 4, Figure 2, read-out: increase of insulin release): 60.2 ± 8.9%
- fold induction at 5 µM (beta-TC6 cells [3]; 0 µM = 1, Table 3): 3.04
- fold induction at 5 µM (beta-TC6 cells [4]): 1.14
- fold induction at 2 µM (beta-TC6 cells [5]; 0 µM = 1, Table 3): 1.66
- fold induction at 10 µM (beta-TC6 cells [5]; 0 µM = 1, Table 3): 2.68
